Assay results published in ChEMBL document CHEMBL4800722, “Data for DCP probe BI 605906” (2021).

Columns and labels:
[1] = biological target: Phosphatidylinositol 3-kinase regulatory subunit beta/Phosphatidylinositol 4,5-bisphosphate 3-kinase catalytic subunit beta isoform (Homo sapiens) (UniProt P42338+O00459); assay: PIK3CB/PIK3R2 Invitrogen Lab (UK) kinase screen (BI); type: protein-complex assay; conditions: Compound concentration 1.0 uM
[2] = biological target: Phosphatidylinositol 4-kinase alpha (Homo sapiens) (UniProt P42356); assay: PI4KA Invitrogen Lab (UK) kinase screen (BI); conditions: Compound concentration 1.0 uM
[3] = biological target: Mitogen-activated protein kinase 15 (Homo sapiens) (UniProt Q8TD08); assay: ERK8 DUNDEE kinase screen (BI); conditions: Compound concentration 10.0 uM
[4] = biological target: Serine/threonine-protein kinase PAK 4 (Homo sapiens) (UniProt O96013)
[5] = biological target: Hepatocyte growth factor receptor (Homo sapiens) (UniProt P08581)
[6] = biological target: Tyrosine-protein kinase Tec (Homo sapiens) (UniProt P42680); conditions: Compound concentration 1.0 uM
[7] = biological target: Mitogen-activated protein kinase 10 (Homo sapiens) (UniProt P53779); assay: JNK3 ALPHA 1 DUNDEE kinase screen (BI); conditions: Compound concentration 10.0 uM
[8] = biological target: Serine/threonine-protein kinase PLK2 (Homo sapiens) (UniProt Q9NYY3); conditions: Compound concentration 1.0 uM
[9] = biological target: D(1A) dopamine receptor (Homo sapiens) (UniProt P21728); conditions: Compound concentration 10.0 uM
[10] = biological target: Non-receptor tyrosine-protein kinase TYK2 (Homo sapiens) (UniProt P29597); conditions: Compound concentration 1.0 uM
[11] = biological target: Receptor-type tyrosine-protein kinase FLT3 (Homo sapiens) (UniProt P36888)
[12] = biological target: Serine/threonine-protein kinase PLK1 (Homo sapiens) (UniProt P53350); assay: PLK1 DUNDEE kinase screen (BI); conditions: Compound concentration 10.0 uM
[13] = biological target: Voltage-dependent L-type calcium channel subunit alpha-1C (CA+/DHPSI/RA) (Rattus norvegicus, UniProt P22002); assay: CA+/DHPSI/RA Eurofins SafetyScreen44 (BI); conditions: read-out: % Ctrl
[14] = biological target: AMPK alpha1/beta1/gamma3 (Homo sapiens) (UniProt Q9Y478+Q13131+Q9UGI9); assay: AMPK (A1/B1/G3) Invitrogen Lab (UK) kinase screen (BI); type: protein-complex assay; conditions: Compound concentration 1.0 uM
[15] = biological target: Dual specificity testis-specific protein kinase 2 (Homo sapiens) (UniProt Q96S53); conditions: Compound concentration 1.0 uM
[16] = biological target: Dual specificity mitogen-activated protein kinase kinase 2 (Homo sapiens) (UniProt P36507); conditions: Compound concentration 1.0 uM
[17] = biological target: Tyrosine-protein kinase TXK (Homo sapiens) (UniProt P42681); conditions: Compound concentration 1.0 uM
[18] = biological target: Serine/threonine-protein kinase 32B (Homo sapiens) (UniProt Q9NY57); conditions: Compound concentration 1.0 uM
[19] = biological target: Serine/threonine-protein kinase TAO3 (Homo sapiens) (UniProt Q9H2K8); conditions: Compound concentration 1.0 uM
[20] = biological target: Casein kinase I isoform gamma-3 (Homo sapiens) (UniProt Q9Y6M4); conditions: Compound concentration 1.0 uM
Homo sapiens = species on record: Homo sapiens; assay: PIK3CA/PIK3R3 Invitrogen Lab (UK) kinase screen (BI); conditions: Compound concentration 1.0 uM
[21] = biological target: Receptor-interacting serine/threonine-protein kinase 3 (Homo sapiens) (UniProt Q9Y572); conditions: Compound concentration 1.0 uM
[22] = biological target: Serine/threonine-protein kinase/endoribonuclease IRE1 (Homo sapiens) (UniProt O75460); conditions: Compound concentration 1.0 uM
[23] = biological target: Serine/threonine-protein kinase LATS2 (Homo sapiens) (UniProt Q9NRM7); assay: LATS2 Invitrogen Lab (UK) kinase screen (BI); conditions: Compound concentration 1.0 uM
[24] = biological target: Activin receptor type-1-like (Homo sapiens) (UniProt P37023); assay: ACVRL1 (ALK1) Invitrogen Lab (UK) kinase screen (BI); conditions: Compound concentration 1.0 uM
[25] = biological target: Dual specificity protein kinase CLK1 (Homo sapiens) (UniProt P49759); conditions: Compound concentration 1.0 uM
[26] = biological target: Maternal embryonic leucine zipper kinase (Homo sapiens) (UniProt Q14680); assay: MELK Invitrogen Lab (UK) kinase screen (BI); conditions: Compound concentration 1.0 uM
[27] = biological target: Vascular endothelial growth factor receptor 2 (Homo sapiens) (UniProt P35968)
[28] = biological target: CDC7/DBF4 (Cell division cycle 7-related protein kinase/Activator of S phase kinase) (Homo sapiens) (UniProt Q9UBU7+O00311); assay: CDC7/DBF4 Invitrogen Lab (UK) kinase screen (BI); type: protein-complex assay; conditions: Compound concentration 1.0 uM
[29] = biological target: Nitric oxide synthase, inducible (Mus musculus) (UniProt P29477); conditions: Compound concentration 10.0 uM
[30] = biological target: Cyclin-dependent kinase 16 (Homo sapiens) (UniProt Q00536); conditions: Compound concentration 1.0 uM
[31] = biological target: Dual specificity mitogen-activated protein kinase kinase 4 (Homo sapiens) (UniProt P45985); assay: MAP2K4 Invitrogen Lab (UK) kinase screen (BI); conditions: Compound concentration 1.0 uM
[32] = biological target: Tyrosine-protein kinase Lyn (Homo sapiens) (UniProt P07948); assay: LYN B Invitrogen Lab (UK) kinase screen (BI); conditions: Compound concentration 1.0 uM
[33] = biological target: Alpha-1D adrenergic receptor (Homo sapiens) (UniProt P25100); conditions: Compound concentration 10.0 uM
[34] = biological target: CDK3/Cyclin E (Homo sapiens) (UniProt P24864+Q00526); assay: CDK3/CYCLIN E1 Invitrogen Lab (UK) kinase screen (BI); type: protein-complex assay; conditions: Compound concentration 1.0 uM
[35] = biological target: G protein-coupled receptor kinase 4 (Homo sapiens) (UniProt P32298); conditions: Compound concentration 1.0 uM
[36] = biological target: Serine/threonine-protein kinase Nek6 (Homo sapiens) (UniProt Q9HC98); assay: NEK6 DUNDEE kinase screen (BI); conditions: Compound concentration 10.0 uM
[37] = biological target: Serine/threonine-protein kinase Chk2 (Homo sapiens) (UniProt O96017); assay: CHK2 DUNDEE kinase screen (BI); conditions: Compound concentration 10.0 uM
[38] = biological target: D(3) dopamine receptor (Homo sapiens) (UniProt P35462); conditions: Compound concentration 10.0 uM
[39] = biological target: Mitogen-activated protein kinase kinase kinase 9 (Homo sapiens) (UniProt P80192); conditions: Compound concentration 1.0 uM
[40] = biological target: Misshapen-like kinase 1 (Homo sapiens) (UniProt Q8N4C8); conditions: Compound concentration 1.0 uM

Chain of Voltage-dependent L-type calcium channel subunit alpha-1C (CA+/DHPSI/RA) (P22002 whole entry): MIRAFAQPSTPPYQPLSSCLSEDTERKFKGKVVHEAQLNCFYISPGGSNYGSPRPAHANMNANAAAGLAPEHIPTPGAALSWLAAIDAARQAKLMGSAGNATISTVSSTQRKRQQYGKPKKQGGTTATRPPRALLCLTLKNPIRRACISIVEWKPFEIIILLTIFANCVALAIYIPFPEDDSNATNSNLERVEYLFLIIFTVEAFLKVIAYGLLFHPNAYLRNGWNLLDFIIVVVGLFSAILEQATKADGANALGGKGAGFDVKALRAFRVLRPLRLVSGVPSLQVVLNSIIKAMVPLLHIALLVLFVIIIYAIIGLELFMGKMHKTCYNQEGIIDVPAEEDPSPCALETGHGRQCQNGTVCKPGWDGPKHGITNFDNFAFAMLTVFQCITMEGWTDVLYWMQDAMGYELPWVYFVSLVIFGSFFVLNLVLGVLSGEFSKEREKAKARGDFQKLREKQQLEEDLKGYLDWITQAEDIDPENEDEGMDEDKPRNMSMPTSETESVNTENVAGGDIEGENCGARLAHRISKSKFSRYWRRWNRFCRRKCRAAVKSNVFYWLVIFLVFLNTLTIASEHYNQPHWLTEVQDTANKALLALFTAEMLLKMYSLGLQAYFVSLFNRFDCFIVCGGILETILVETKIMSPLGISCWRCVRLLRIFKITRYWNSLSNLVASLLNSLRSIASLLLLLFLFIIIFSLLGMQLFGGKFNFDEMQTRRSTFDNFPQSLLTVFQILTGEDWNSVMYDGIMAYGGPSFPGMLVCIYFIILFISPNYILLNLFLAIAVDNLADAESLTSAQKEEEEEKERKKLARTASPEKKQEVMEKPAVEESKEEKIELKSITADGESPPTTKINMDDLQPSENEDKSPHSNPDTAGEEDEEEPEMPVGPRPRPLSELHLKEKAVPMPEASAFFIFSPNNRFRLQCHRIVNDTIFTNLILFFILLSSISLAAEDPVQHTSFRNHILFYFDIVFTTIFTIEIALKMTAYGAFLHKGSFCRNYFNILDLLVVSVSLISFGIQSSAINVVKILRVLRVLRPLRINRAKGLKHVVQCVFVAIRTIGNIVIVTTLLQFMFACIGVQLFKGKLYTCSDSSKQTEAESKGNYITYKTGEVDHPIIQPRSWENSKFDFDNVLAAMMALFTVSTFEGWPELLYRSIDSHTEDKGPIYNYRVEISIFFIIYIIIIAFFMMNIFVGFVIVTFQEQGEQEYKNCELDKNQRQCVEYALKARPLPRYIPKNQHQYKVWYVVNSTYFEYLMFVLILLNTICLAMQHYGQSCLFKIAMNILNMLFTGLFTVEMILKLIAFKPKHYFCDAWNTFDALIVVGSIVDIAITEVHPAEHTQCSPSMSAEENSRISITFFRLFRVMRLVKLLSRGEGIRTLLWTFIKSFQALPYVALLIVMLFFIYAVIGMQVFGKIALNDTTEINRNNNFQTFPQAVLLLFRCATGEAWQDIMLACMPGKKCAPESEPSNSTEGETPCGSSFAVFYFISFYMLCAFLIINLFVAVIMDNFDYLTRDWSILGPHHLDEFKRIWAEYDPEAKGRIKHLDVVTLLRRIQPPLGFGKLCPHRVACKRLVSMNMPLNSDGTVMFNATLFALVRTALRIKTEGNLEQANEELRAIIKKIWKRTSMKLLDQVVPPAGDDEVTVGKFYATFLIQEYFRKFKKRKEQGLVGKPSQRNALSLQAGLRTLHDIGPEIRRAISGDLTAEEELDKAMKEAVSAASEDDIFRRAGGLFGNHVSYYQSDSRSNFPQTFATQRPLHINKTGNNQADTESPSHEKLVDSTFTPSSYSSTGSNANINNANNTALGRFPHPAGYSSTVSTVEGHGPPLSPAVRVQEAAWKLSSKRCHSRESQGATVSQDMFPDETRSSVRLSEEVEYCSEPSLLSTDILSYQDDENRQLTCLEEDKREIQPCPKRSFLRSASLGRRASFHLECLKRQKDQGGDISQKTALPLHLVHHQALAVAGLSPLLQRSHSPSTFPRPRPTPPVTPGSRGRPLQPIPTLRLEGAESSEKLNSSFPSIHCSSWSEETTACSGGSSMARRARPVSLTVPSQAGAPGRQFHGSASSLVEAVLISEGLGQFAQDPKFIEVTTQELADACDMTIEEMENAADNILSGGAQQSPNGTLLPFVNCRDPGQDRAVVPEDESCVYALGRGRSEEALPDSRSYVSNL
Chain of Hepatocyte growth factor receptor (Homo sapiens) (P08581 whole entry): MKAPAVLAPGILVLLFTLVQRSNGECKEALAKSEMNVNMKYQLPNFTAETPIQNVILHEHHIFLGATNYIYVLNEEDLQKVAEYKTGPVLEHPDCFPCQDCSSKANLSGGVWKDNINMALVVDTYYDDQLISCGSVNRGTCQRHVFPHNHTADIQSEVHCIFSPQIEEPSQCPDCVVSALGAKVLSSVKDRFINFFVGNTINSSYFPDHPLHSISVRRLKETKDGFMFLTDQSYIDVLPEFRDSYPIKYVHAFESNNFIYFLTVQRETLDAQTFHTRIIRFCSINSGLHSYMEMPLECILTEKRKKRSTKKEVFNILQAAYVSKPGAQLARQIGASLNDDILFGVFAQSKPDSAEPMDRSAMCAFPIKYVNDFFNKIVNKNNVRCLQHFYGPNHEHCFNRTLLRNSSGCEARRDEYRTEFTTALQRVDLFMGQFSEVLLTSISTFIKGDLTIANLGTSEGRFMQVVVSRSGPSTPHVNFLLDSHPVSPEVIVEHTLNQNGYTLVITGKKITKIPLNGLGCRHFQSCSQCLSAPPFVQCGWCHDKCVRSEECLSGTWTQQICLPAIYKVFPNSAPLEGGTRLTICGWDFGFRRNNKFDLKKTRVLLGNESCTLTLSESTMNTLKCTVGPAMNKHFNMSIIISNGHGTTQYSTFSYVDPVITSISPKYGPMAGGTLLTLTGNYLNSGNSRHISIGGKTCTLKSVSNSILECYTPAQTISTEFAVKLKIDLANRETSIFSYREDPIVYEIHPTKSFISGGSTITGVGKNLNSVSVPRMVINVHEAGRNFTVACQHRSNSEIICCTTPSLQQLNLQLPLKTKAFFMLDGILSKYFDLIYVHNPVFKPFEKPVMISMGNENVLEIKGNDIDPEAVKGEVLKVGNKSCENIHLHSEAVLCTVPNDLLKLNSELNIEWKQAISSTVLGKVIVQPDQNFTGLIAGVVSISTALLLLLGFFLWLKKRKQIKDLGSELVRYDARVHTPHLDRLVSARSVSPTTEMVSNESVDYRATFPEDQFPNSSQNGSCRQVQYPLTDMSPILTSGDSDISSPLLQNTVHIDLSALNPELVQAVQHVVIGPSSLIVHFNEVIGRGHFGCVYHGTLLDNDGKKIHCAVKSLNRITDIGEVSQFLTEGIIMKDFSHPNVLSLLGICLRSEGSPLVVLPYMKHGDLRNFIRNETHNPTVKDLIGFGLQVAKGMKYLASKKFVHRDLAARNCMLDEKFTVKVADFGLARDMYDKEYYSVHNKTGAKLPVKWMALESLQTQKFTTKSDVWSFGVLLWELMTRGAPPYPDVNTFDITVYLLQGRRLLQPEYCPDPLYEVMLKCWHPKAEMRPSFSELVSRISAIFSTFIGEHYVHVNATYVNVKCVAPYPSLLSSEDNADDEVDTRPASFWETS
Chain of Receptor-type tyrosine-protein kinase FLT3 (Homo sapiens) (P36888 whole entry): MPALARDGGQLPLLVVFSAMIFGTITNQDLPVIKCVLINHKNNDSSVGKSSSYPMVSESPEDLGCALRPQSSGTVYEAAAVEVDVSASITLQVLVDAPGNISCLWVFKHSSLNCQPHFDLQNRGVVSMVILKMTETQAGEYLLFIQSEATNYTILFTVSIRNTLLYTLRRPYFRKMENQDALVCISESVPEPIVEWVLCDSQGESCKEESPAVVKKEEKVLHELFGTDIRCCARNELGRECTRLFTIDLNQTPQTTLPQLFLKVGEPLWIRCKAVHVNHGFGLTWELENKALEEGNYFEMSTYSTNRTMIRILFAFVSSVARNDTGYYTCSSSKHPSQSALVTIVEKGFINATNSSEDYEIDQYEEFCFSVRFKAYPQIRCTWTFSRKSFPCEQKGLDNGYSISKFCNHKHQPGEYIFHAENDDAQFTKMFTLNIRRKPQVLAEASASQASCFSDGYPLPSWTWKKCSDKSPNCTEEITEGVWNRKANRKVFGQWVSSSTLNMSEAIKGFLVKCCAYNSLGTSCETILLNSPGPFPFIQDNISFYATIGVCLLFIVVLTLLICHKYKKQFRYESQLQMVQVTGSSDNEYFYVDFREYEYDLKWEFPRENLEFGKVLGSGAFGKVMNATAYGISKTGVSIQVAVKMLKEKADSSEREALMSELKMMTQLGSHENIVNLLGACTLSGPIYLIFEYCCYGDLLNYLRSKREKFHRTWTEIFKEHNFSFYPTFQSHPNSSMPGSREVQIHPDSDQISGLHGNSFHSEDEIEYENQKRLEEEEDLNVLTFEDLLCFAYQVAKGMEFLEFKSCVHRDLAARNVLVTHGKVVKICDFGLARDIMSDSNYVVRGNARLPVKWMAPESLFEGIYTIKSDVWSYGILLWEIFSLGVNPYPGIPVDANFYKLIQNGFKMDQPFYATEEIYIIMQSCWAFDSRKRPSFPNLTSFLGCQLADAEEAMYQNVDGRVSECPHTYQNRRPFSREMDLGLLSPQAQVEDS
Chain of Serine/threonine-protein kinase PAK 4 (Homo sapiens) (O96013 whole entry, looked up): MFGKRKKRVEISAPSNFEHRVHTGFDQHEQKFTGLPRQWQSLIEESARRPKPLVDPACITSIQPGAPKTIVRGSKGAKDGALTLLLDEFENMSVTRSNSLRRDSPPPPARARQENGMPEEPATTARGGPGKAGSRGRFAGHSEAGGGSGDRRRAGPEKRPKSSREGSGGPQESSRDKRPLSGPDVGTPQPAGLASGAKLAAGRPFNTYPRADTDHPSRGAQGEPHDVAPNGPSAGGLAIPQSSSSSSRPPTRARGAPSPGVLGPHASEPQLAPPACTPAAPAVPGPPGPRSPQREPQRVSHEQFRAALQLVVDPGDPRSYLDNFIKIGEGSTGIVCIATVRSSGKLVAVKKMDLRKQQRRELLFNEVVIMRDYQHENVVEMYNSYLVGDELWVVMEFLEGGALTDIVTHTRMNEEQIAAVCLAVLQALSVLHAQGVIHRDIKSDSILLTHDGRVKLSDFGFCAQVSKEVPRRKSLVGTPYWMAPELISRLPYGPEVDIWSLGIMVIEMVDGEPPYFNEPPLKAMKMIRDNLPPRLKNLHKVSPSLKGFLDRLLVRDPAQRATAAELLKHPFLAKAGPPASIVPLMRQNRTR

CCC(F)(F)c1cc(N2CCC(S(C)(=O)=O)CC2)nc2sc(C(N)=O)c(N)c12 [BI-605906]
inactive: residual activity [1] 112% | residual activity [2] 84% | residual activity [3] 63.2% | residual activity ([4]; Compound concentration 1.0 uM) 95% | residual activity ([4]; Compound concentration 10.0 uM) 80% | residual activity ([5]; Compound concentration 1.0 uM) 103% | residual activity ([5]; Compound concentration 10.0 uM) 90% | residual activity [6] 96% | residual activity [7] 72.4% | residual activity [8] 96% | inhibition [9] 25.7% | residual activity [10] 93% | residual activity ([11]; Compound concentration 1.0 uM) 71% | residual activity [12] 86.8% | residual activity [14] 84% | residual activity [15] 90% | residual activity [16] 91% | residual activity [17] 93% | residual activity [18] 96% | residual activity [19] 93% | residual activity [20] 99% | residual activity (Homo sapiens) 103% | residual activity [21] 100% | residual activity [22] 82% | residual activity [23] 88% | residual activity [24] 64% | residual activity [25] 92% | residual activity [26] 103% | residual activity ([27]; Compound concentration 1.0 uM) 98% | residual activity ([27]; Compound concentration 10.0 uM) 79% | residual activity [28] 88% | residual activity [29] 108% | residual activity [30] 87% | residual activity [31] 79% | residual activity [32] 78% | inhibition [33] 36.7% | residual activity [34] 78% | residual activity [35] 100% | residual activity [36] 83.3% | residual activity [39] 108% | residual activity [40] 96%
94% (not active): activity at 3 µM ([13]; compound concentration 3 uM)
active: residual activity ([11]; Compound concentration 10.0 uM) 38% | residual activity [37] 49.7% | inhibition [38] 51.5%
41.5%: activity at 100 µM ([13]; compound concentration 100 uM)
91% (not active): activity at 10 µM ([13]; compound concentration 10 uM)
77% (not active): activity at 30 µM ([13]; compound concentration 30 uM)
104% (not active): activity at 1 µM ([13]; compound concentration 1 uM)
